In patent US20240349768A1, “SWEETENER BLEND COMPRISING THAUMATIN AND ONE OR MORE REBAUDIOSIDE” (NOMAD BIOSCIENCE GMBH, priority 2021, published 2024):

How the values were obtained:
[1] = system: test panelists; test: Round table evaluation of sweetness intensity (SEV) against sucrose reference samples; assay type: in vivo; details: 7 panelists, mean
Protocol: Round table evaluations were performed with 7 test panelists. Equal sweet 5 SEV concentrations in neutral pH water were made for Thaumatin II (purity greater than 90%), Rebaudioside A, and Rebaudioside M. These equal sweet solutions were also mixed at 50% of Thaumatin II and 50% Reb M or RebA and compared to the individual components. The components of the test compositions are described in the below tables. The mixed compositions were calculated using the Beidler mixture equation for the sweeteners. The Beidler mixture equation for sweeteners is as follows: [formula] The concentration of each component in the mixture in ppm is divided by SEV (c/R) and is plotted against concentration, c. The slope of the linear regression is the maximum SEV (Rmax). The y-intercept of the linear regression multiplied by Rmax is the half-maximal sweetness concentration, 1/K. Rmax and 1/K are the two parameters used in the Beidler equation. Mixtures were tasted in comparison to reference samples for the panelists to determine SEV values. References samples were 3%, 4%, 5%, 6%, 7%, and 8% sucrose in neutral pH water. The test samples were served in 2 ounce soufflé cups (approximately 60 ml) coded with 3-digit codes at room temperature. A two minute wait period between samples was enforced. Water and unsalted crackers was available for the panelists to clear their palates before and during testing. Results were collected for calculating approximate SEV level of each test sample.

[2] = system: test panelists; test: Round table qualitative assessment of quality of sweetness and undesirable attributes, scale of 1-10; assay type: in vivo; details: for Quality of sweetness (higher better): scale 1-10, 10 = 5% sucrose, 1 = 500 ppm RebA; for Off taste (lower better): scale 1-10, 10 = 500 ppm RebA, 1 = 5% sucrose
Protocol: Round table evaluations were performed with 7 test panelists. Equal sweet 5 SEV concentrations in neutral pH water were made for Thaumatin II (purity greater than 90%), Rebaudioside A, and Rebaudioside M. These equal sweet solutions were also mixed at 50% of Thaumatin II and 50% Reb M or RebA and compared to the individual components. All solutions were coded and blinded from panelists. Panelists were asked to provide a qualitative assessment on a scale of 1-10 of the quality of sweetness (10 being the highest quality of sweetness) and undesirable attributes (10 being most undesirable) of each solution using a 5% sucrose and 500 ppm RebA solutions as controls. For the quality of sweetness, the score 10 was assigned to 5% sucrose. Vice versa, the score 1 was assigned to and 500 ppm RebA. For undesirable attributes, the scores 10 and 1 were assigned to 500 ppm RebA and 5% sucrose, respectively.

`C=C1C[C@@]23CC[C@H]4[C@@](C)(CCC[C@@]4(C)C(=O)O[C@@H]4O[C@H](CO)[C@@H](O)[C@H](O)[C@H]4O)[C@@H]2CC[C@]1(O[C@@H]1O[C@H](CO)[C@@H](O)[C@H](O[C@@H]2O[C@H](CO)[C@@H](O)[C@H](O)[C@H]2O)[C@H]1O[C@@H]1O[C@H](CO)[C@@H](O)[C@H](O)[C@H]1O)C3` [Rebaudioside A] was tested, and the “Sweetness intensity determined, SEV” value ([1]; 260 ppm in neutral pH water) was 4.8 SEV, the “Quality of sweetness (higher better)” value ([2]; 260 ppm in neutral pH water) was 5.6 and the “Off taste (lower better)” value ([2]; 260 ppm in neutral pH water) was 6.7.

For `C=C1C[C@@]23CC[C@H]4[C@@](C)(CCC[C@@]4(C)C(=O)O[C@@H]4O[C@H](CO)[C@@H](O)[C@H](O[C@@H]5O[C@H](CO)[C@@H](O)[C@H](O)[C@H]5O)[C@H]4O[C@@H]4O[C@H](CO)[C@@H](O)[C@H](O)[C@H]4O)[C@@H]2CC[C@]1(O[C@@H]1O[C@H](CO)[C@@H](O)[C@H](O[C@@H]2O[C@H](CO)[C@@H](O)[C@H](O)[C@H]2O)[C@H]1O[C@@H]1O[C@H](CO)[C@@H](O)[C@H](O)[C@H]1O)C3` [Rebaudioside M], the “Sweetness intensity determined, SEV” value ([1]; 155 ppm in neutral pH water) was 5.3 SEV, the “Quality of sweetness (higher better)” value ([2]; 155 ppm in neutral pH water) was 8.8 and the “Off taste (lower better)” value ([2]; 155 ppm in neutral pH water) was 2.5. The “Quality of sweetness and off taste, in words” value ([2]; equal sweet 5 SEV solutions and their 50%/50% mixtures in neutral pH water) was “very mild artificial off taste”.

B1: Thaumatin II: oligopeptide or protein of SEQ ID NO: 2; recombinant, purity greater than 90%, purified from transgenic Nicotiana tabacum plants (protein, listed as Thaumatococcus daniellii)
chain: ATFEIVNRCSYTVWAAASKGDAALDAGGRQLNSGESWTINVEPGTKGGKIWARTDCYFDDSGRGICRTGDCGGLLQCKRFGRPPTTLAEFSLNQYGKDYIDISNIKGFNVPMDFSPTTRGCRGVRCAADIVGQCPAKLKAPGGGCNDACTVFQTSEYCCTTGKCGPTEYSRFFKRLCPDAFSYVLDKPTTVTCPGSSNYRVTFCPTA
With B1 the “Sweetness intensity determined, SEV” value ([1]; 7 ppm in neutral pH water) was 4.6 SEV, the “Quality of sweetness (higher better)” value ([2]; 7 ppm in neutral pH water) was 6.5 and the “Off taste (lower better)” value ([2]; 7 ppm in neutral pH water) was 4.7.
